Target: GBSSrtC1 (SAG2603 V/R sortase C1) (Streptococcus agalactiae, UniProt Q8E0S7)
Assay: NMR
Type: binding
Conditions: irreversible cysteine protease inhibitor; in solution

CC(C)C[C@H](NC(=O)[C@H]1O[C@@H]1C(=O)O)C(=O)NCCCCN=C(N)N [E64]
NMR (results not shown): inhibitors MTSET and E64 in solution was confirmed by mass spectrometry and NMR, respectively

From paper PMC3230703 (Journal of molecular biology, 2011)
